Results as given in BindingDB's records for doi:10.1021/jm00100a018 (1992).
Where a name gives a salt, the structure may show the parent alone.

Legend:
[1] = Concentration tested in vitro to inhibit PAF-induced maximum aggregation (PAF-Antagonistic activity) by 50%.
[2] = as above; remark: listed apart in the source

| SMILES | IC50 [1] [nM] | IC50 [2] [nM] |
| --- | --- | --- |
| N#CC(c1cccnc1)N1CCN(C(=O)Cc2cccc3ccccc23)CC1 (stereo unspecified) | 76 |  |
| N#CC(c1cccnc1)N1CCN(CCNC(=O)CC(c2ccccc2)c2ccccc2)CC1 (stereo unspecified) | 5500 |  |
| COc1cc(CC(=O)N2CCN(C(C#N)c3cccnc3)CC2)cc(OC)c1OC (stereo unspecified) | 460 |  |
| CN(CCCc1ccccc1)CC(=O)N1CCN(C(C#N)c2cccnc2)CC1 (stereo unspecified) [(4-{2-[Methyl-(3-phenyl-propyl)-amino]-acetyl}-piperazin-1-yl)-pyridin-3-yl-acetonitrile; dihydrochloride; hydrate] | 2200 |  |
| CCCCC(=O)N1CCN(C(C#N)c2cccnc2)CC1 (stereo unspecified) | 2600 |  |
| CC(c1cccnc1)N1CCN(C(=O)C(c2ccccc2)c2ccccc2)CC1 (stereo unspecified) | 1200 |  |
| COc1cc(CCC(=O)N2CCN(C(=O)c3cc(OC)c(OC)c(OC)c3)CC2)cc(OC)c1OC | 73000 |  |
| N#CC(c1cccnc1)N1CCN(CCC(c2ccccc2)c2ccccc2)CC1 (stereo unspecified) | 630 |  |
| N#CC(c1cccc([N+](=O)[O-])c1)N1CCN(C(=O)CC(c2ccccc2)c2ccccc2)CC1 (stereo unspecified) | 11000 |  |
| NC(=O)C(c1cccnc1)N1CCN(C(=O)C(c2ccccc2)c2ccccc2)CC1 (stereo unspecified) | 200000 |  |
| COc1cc(C(=O)N2CCN(C(C#N)c3ccccn3)CC2)cc(OC)c1OC (stereo unspecified) | 44000 |  |
| O=C(CC(c1ccccc1)c1ccccc1)N1CCN(Cc2cccnc2)CC1 | 520 |  |
| N#CC(c1cccnc1)N1CCN(C(=O)Cc2ccc3ccccc3c2)CC1 (stereo unspecified) | 720 |  |
| N#CC(c1ccncc1)N1CCN(C(=O)CNC(=O)C(c2ccccc2)c2ccccc2)CC1 (stereo unspecified) | 680 |  |
| COc1cc(C(=O)N2CCN(C(=O)c3cc(OC)c(OC)c(OC)c3)CC2)cc(OC)c1OC | 9400 |  |
| N#CC(c1cccnc1)N1CCN(C(=O)Cc2c[nH]c3ccccc23)CC1 (stereo unspecified) | 450 |  |
| Cn1cccc1C(C#N)N1CCN(C(=O)CC(c2ccccc2)c2ccccc2)CC1 (stereo unspecified) | 25000 |  |
| N#CC(c1cccnc1)N1CCN(C(=O)c2ccc3ccccc3c2)CC1 (stereo unspecified) [[4-(Naphthalene-2-carbonyl)-piperazin-1-yl]-pyridin-3-yl-acetonitrile; dihydrochloride] |  | 25000 |
| N#CC(CN1CCN(C(=O)C(c2ccccc2)c2ccccc2)CC1)c1cccnc1 (stereo unspecified) | 2300 |  |
| COc1cc(C(=O)N2CCN(C(C#N)c3cccnc3)CC2)cc(OC)c1OC (stereo unspecified) [Pyridin-3-yl-[4-(3,4,5-trimethoxy-benzoyl)-piperazin-1-yl]-acetonitrile; dihydrochloride; hydrate] | 1900 |  |
| COc1cc(C(=O)N2CCN(C(=O)c3cccnc3)CC2)cc(OC)c1OC | 5200 |  |
| N#CC(c1cccc(Cl)c1)N1CCN(C(=O)CC(c2ccccc2)c2ccccc2)CC1 (stereo unspecified) | 21000 |  |
| N#Cc1cccc(C(C#N)N2CCN(C(=O)CC(c3ccccc3)c3ccccc3)CC2)c1 (stereo unspecified) | 7400 |  |
| N#CC(c1cccnc1)N1CCN(C(=O)c2ccccc2)CC1 (stereo unspecified) [(4-Benzoyl-piperazin-1-yl)-pyridin-3-yl-acetonitrile; dihydrochloride] | 4800 |  |

| SMILES | IC50 [1] [nM] | IC50 [2] [nM] |
| --- | --- | --- |
| COc1cc(C(=O)N2CCN(Cc3cccnc3)CC2)cc(OC)c1OC [(4-Pyridin-3-ylmethyl-piperazin-1-yl)-(3,4,5-trimethoxy-phenyl)-methanone; dihydrochloride; hydrate] | 17000 |  |
| O=C(CC(c1ccccc1)c1ccccc1)N1CCN(C(=O)c2cc[n+]([O-])cc2)CC1 | 1900 |  |
| N#CC(c1cccnc1)N1CCN(C(=O)CCc2ccccc2)CC1 (stereo unspecified) [[4-(3-Phenyl-propionyl)-piperazin-1-yl]-pyridin-3-yl-acetonitrile; dihydrochloride; hydrate] | 520 |  |
| COc1cc(C(=O)N2CCN(C(=S)c3cccnc3)CC2)cc(OC)c1OC | 1300 |  |
| CCCCCCCCCCCCCCCC(=O)N1CCN(C(C#N)c2cccnc2)CC1 (stereo unspecified) | > 200000 |  |
| N#CC(c1cccnc1)N1CCN(C(=O)C(CCc2ccccc2)c2ccccc2)CC1 (stereo unspecified) | 2600 |  |
| O=C(c1cccnc1)N1CCN(C(=O)C(c2ccccc2)c2ccccc2)CC1 | 23000 |  |
| N#CC(c1cccnc1)N1CCN(C(=O)CNCCCc2ccccc2)CC1 (stereo unspecified) | 530 |  |
| N#CC(c1cccnc1)N1CCN(C(=O)/C=C/c2ccccc2)CC1 (stereo unspecified) | 2500 |  |
| N#CC(c1cccnc1)N1CCN(C(=O)Cc2ccccc2)CC1 (stereo unspecified) | 2700 |  |
| N#CC(c1cccnc1)N1CCN(C(=O)CNc2cccc3ccccc23)CC1 (stereo unspecified) | 2600 |  |
| O=C(C(c1ccccc1)c1ccccc1)N1CC[N+]([O-])(Cc2cccnc2)CC1 | 44000 |  |
| Cn1ccc(C(C#N)N2CCN(C(=O)CC(c3ccccc3)c3ccccc3)CC2)c1 (stereo unspecified) | 2600 |  |
| CN(C)c1ccc(C(C#N)N2CCN(C(=O)CC(c3ccccc3)c3ccccc3)CC2)cc1 (stereo unspecified) | 210000 |  |
| N#CC(c1cccc(C(F)(F)F)c1)N1CCN(C(=O)CC(c2ccccc2)c2ccccc2)CC1 (stereo unspecified) | 9000 |  |
| COc1cc(CCC(=O)N2CCN(C(C#N)c3cccnc3)CC2)cc(OC)c1OC (stereo unspecified) [Pyridin-3-yl-{4-[3-(3,4,5-trimethoxy-phenyl)-propionyl]-piperazin-1-yl}-acetonitrile; dihydrochloride; hydrate] | 400 |  |
| N#CC(c1cccnc1)N1CCC(OC(=O)CC(c2ccccc2)c2ccccc2)CC1 (stereo unspecified) [3,3-Diphenyl-propionic acid 1-(cyano-pyridin-3-yl-methyl)-piperidin-4-yl ester; dihydrochloride; hydrate] | 2600 |  |
| CN(CC(=O)N1CCN(C(C#N)c2cccnc2)CC1)c1ccccc1 (stereo unspecified) | 2800 |  |
| O=C(C(c1ccccc1)c1ccccc1)N1CCN(Cc2cccnc2)CC1 | 2600 |  |
| CC(C)(C)C(=O)N1CCN(C(C#N)c2cccnc2)CC1 (stereo unspecified) | 5200 |  |
| Cn1cc(C(C#N)N2CCN(C(=O)CC(c3ccccc3)c3ccccc3)CC2)c2ccccc21 (stereo unspecified) | 5700 |  |
| O=C(CC(c1ccccc1)c1ccccc1)N1CCN(C(=O)c2ccncc2)CC1 | 1900 |  |
| CCCCCCCC(=O)N1CCN(C(C#N)c2cccnc2)CC1 (stereo unspecified) | 920 |  |

Other lines, results leading:

| IC50 [1] [nM] | IC50 [2] [nM] | SMILES |
| --- | --- | --- |
| 24 |  | N#CC(c1cccnc1)C1CCN(C(=O)CNC(c2ccccc2)c2ccccc2)CC1 (stereo unspecified) |
| 26 |  | N#CC(=C1CCN(C(=O)CC(c2ccccc2)c2ccccc2)CC1)c1cccnc1 |
| 240 |  | N#CC(c1cccnc1)N1CCN(CC(=O)NCCC(c2ccccc2)c2ccccc2)CC1 (stereo unspecified) |
| 86 |  | N#CC(c1cccnc1)N1CCN(C(=O)CNCCC(c2ccccc2)c2ccccc2)CC1 (stereo unspecified) |
| 21 |  | N#CC(c1cncs1)N1CCN(C(=O)CC(c2ccccc2)c2ccccc2)CC1 (stereo unspecified) |
| 200 |  | N#CC1(Nc2cccnc2)CCN(C(=O)CNC(c2ccccc2)c2ccccc2)CC1 |
| 36 |  | CC(NCC(=O)N1CCN(C(C#N)c2cccnc2)CC1)c1ccccc1 (stereo unspecified) |
| 240 |  | N#CC(c1cccnc1)N1CCN(C(=O)CNCc2ccccc2)CC1 (stereo unspecified) [[4-(2-Benzylamino-acetyl)-piperazin-1-yl]-pyridin-3-yl-acetonitrile; dihydrochloride; hydrate] |
| 11 |  | N#CC(c1cccnc1)N1CCN(C(=O)C(Cc2ccccc2)Cc2ccccc2)CC1 (stereo unspecified) [[4-(2-Benzyl-3-phenyl-propionyl)-piperazin-1-yl]-pyridin-3-yl-acetonitrile; dihydrochloride; hydrate] |
| 36 |  | N#CC(c1cccnc1)N1CCN(CCNC(=O)C(c2ccccc2)c2ccccc2)CC1 (stereo unspecified) |
| 220 |  | N#CC(c1cccnc1)N1CCN(C(=O)CNCC(c2ccccc2)c2ccccc2)CC1 (stereo unspecified) |
| 50 |  | N#CC(c1cccnc1)N1CCN(C(=O)CNC(Cc2ccccc2)c2ccccc2)CC1 (stereo unspecified) |
| 23 |  | N#CC(c1cccnc1)N1CCN(C(=S)C(c2ccccc2)c2ccccc2)CC1 (stereo unspecified) |
| 55 |  | N#CC(c1ccncc1)N1CCN(C(=O)CCNC(c2ccccc2)c2ccccc2)CC1 (stereo unspecified) |
| 32 |  | N#CC(c1cccnc1)N1CCN(C(=O)CN(Cc2ccccc2)Cc2ccccc2)CC1 (stereo unspecified) |
| 21 |  | CC(C(=O)N1CCN(C(C#N)c2cccnc2)CC1)c1ccccc1 (stereo unspecified) [[4-(2-Phenyl-propionyl)-piperazin-1-yl]-pyridin-3-yl-acetonitrile; dihydrochloride] |
| 51 |  | N#CC(c1ccncc1)N1CCN(C(=O)CC(c2ccccc2)c2ccccc2)CC1 (stereo unspecified) [[4-(3,3-Diphenyl-propionyl)-piperazin-1-yl]-pyridin-4-yl-acetonitrile; dihydrochloride] |

| IC50 [1] [nM] | IC50 [2] [nM] | SMILES |
| --- | --- | --- |
| 87 |  | O=C(CC(c1ccccc1)c1ccccc1)N1CCC(Nc2cccnc2)CC1 [3,3-Diphenyl-1-[4-(pyridin-3-ylamino)-piperidin-1-yl]-propan-1-one; dihydrochloride; hydrate] |
| 360 |  | N#CC(c1cccnc1)N1CCN(C(=O)NC(c2ccccc2)c2ccccc2)CC1 (stereo unspecified) |
| 240 |  | CC(c1ccccc1)N(C)CC(=O)N1CCN(C(C#N)c2cccnc2)CC1 (stereo unspecified) |
| 7.5 |  | N#CC(c1cccnc1)N1CCN(C(=O)/C(=C/c2ccccc2)c2ccccc2)CC1 (stereo unspecified) |
| 21 |  | N#CC(c1cccnc1)C1CCN(C(=O)C(c2ccccc2)c2ccccc2)CC1 (stereo unspecified) |
| 60 |  | CN(CC(=O)N1CCN(C(C#N)c2cccnc2)CC1)C(c1ccccc1)c1ccccc1 (stereo unspecified) |
| 10 |  | N#CC(c1cccnc1)N1CCN(C(=O)C(c2ccccc2)c2ccccc2)CC1 (stereo unspecified) |
| 15 |  | N#CC1(Nc2cccnc2)CCN(C(=O)CC(c2ccccc2)c2ccccc2)CC1 |
| 26 |  | N#CC(c1cccnc1)N1CCN(C(=O)OCC(c2ccccc2)c2ccccc2)CC1 (stereo unspecified) [4-(Cyano-pyridin-3-yl-methyl)-piperazine-1-carboxylic acid 2,2-diphenyl-ethyl ester; dihydrochloride; hydrate] |
| 2.7 |  | N#CC(c1ccncc1)N1CCN(C(=O)CC(O)(c2ccccc2)c2ccccc2)CC1 (stereo unspecified) |
| 260 |  | N#CC(c1cccnc1)N1CCN(C(=O)CCCc2ccccc2)CC1 (stereo unspecified) |
| 130 |  | N#CC(c1cccnc1)N1CCN(C(=O)CNc2ccccc2)CC1 (stereo unspecified) |
| 36 |  | N#CC(c1ccncc1)N1CCN(CCNC(c2ccccc2)c2ccccc2)CC1 (stereo unspecified) |
| 230 |  | N#CC(c1cccnc1)N1CCN(C(=O)C(Cc2ccccc2)c2ccccc2)CC1 (stereo unspecified) |
| 24 |  | N#CC(c1cccnc1)N1CCN(C(=O)CN(Cc2ccccc2)c2ccccc2)CC1 (stereo unspecified) |
| 1.9 |  | CC(C(=O)N1CCN(C(C#N)c2cccnc2)CC1)(c1ccccc1)c1ccccc1 (stereo unspecified) [[4-(2,2-Diphenyl-propionyl)-piperazin-1-yl]-pyridin-3-yl-acetonitrile; dihydrochloride] |
| 240 |  | CC(C#N)(c1cccnc1)N1CCN(C(=O)C(c2ccccc2)c2ccccc2)CC1 (stereo unspecified) |
